Laboratory results reported in ChEMBL document CHEMBL6127091, “Design, synthesis, and evaluation of chalcone derivatives as xanthine oxidase inhibitors” (Eur J Med Chem, 2024).
The source made the active and inactive calls. The rule behind the calls is not given here.

Assays:
[1] = target: Xanthine dehydrogenase/oxidase (Bos taurus, UniProt P80457); assay: Inhibition of bovine milk xanthine oxidase using xanthine as substrate preincubated for 30 mins followed by substrate addition by absorbance based analysis
Xanthine dehydrogenase/oxidase (Bos taurus, UniProt P80457), sequence (P80457 whole entry): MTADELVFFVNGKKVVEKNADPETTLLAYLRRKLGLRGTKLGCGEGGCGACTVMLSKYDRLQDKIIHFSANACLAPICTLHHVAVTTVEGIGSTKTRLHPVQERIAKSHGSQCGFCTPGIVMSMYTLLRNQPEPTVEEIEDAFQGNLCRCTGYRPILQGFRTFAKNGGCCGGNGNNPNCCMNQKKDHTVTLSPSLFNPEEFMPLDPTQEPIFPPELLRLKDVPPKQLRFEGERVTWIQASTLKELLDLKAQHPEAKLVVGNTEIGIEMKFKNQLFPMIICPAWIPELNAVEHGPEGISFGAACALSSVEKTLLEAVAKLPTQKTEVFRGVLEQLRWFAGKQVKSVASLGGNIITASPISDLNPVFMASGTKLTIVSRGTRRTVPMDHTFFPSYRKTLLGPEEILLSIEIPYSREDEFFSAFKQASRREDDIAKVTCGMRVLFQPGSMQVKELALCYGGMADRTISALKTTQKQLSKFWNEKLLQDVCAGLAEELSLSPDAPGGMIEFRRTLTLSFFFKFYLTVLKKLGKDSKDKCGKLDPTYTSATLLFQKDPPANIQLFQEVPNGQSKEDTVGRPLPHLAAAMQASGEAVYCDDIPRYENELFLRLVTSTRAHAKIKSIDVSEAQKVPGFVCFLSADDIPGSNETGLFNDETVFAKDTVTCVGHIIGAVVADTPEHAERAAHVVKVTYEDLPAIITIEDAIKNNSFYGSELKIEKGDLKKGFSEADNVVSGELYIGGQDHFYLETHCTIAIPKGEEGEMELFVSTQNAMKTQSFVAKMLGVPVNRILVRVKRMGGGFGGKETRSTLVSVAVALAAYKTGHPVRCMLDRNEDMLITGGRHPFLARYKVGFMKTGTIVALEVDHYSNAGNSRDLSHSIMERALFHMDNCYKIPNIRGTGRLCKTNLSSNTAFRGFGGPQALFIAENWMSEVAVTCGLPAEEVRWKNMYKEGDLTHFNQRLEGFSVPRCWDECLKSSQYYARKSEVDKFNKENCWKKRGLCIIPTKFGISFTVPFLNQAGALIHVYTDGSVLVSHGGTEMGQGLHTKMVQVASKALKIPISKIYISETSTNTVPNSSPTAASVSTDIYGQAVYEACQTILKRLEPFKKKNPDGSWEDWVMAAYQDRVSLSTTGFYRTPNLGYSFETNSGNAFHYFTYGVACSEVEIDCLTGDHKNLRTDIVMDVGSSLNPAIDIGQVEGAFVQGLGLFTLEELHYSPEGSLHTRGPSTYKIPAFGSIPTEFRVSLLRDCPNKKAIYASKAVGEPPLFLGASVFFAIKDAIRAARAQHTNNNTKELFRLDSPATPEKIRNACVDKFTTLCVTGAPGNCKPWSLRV

[2] = target: T1, Xanthine dehydrogenase/oxidase (Homo sapiens, UniProt P47989); assay: Inhibition of xanthine oxidase (unknown origin)
T1 sequence (P47989 whole entry): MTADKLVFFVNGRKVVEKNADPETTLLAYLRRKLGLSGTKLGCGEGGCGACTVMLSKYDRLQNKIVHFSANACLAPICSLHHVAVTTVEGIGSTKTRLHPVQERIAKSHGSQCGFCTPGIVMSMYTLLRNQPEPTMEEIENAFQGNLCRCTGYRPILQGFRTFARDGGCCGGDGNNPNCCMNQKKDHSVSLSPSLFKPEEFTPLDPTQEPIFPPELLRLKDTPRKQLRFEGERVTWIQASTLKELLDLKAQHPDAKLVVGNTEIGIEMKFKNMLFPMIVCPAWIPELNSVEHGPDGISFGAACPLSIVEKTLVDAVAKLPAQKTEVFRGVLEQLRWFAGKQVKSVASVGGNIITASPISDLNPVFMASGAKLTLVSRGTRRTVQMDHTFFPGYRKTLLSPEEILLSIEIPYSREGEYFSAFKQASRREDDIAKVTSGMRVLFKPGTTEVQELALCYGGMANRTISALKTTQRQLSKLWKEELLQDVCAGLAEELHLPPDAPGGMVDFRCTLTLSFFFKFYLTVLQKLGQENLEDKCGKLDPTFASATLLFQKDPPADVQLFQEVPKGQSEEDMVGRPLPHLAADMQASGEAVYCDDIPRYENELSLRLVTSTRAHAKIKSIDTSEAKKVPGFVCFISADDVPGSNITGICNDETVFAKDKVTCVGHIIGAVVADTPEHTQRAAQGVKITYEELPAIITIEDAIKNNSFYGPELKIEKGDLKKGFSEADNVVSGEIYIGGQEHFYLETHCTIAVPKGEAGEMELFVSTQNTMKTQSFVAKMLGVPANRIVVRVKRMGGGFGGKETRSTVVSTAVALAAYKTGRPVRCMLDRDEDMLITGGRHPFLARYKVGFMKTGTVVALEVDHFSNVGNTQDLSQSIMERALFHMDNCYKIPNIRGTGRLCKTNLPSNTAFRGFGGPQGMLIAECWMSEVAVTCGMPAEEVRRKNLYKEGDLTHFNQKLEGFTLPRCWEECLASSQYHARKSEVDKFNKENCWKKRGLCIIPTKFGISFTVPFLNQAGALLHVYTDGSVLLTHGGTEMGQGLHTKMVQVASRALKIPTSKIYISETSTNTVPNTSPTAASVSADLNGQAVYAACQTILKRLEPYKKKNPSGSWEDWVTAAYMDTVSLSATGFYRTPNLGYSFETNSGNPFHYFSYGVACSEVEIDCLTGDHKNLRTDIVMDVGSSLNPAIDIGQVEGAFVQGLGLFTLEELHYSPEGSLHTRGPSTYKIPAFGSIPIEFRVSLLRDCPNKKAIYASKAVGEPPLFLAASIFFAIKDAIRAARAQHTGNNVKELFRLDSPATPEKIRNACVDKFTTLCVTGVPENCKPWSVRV

AML12 = assay: Cytotoxicity in mouse AML12 cells at 1 to 20 uM incubated for 24 hrs by MTT assay; type: toxicity, cell-based; settings: aml12, 24 h, dose 1-20 µM
Rattus norvegicus [3] = assay: Anti-hyperuricemia effect in PO-induced hyperuricemia Sprague-Dawley rat model assessed as decrease in serum uric acid level at 10 to 40 mg/kg, po measured after 2 hrs; type: functional, organism-based; settings: dose 10-40 mg/kg
[4] = Effect on serum AST/ALT ratio in PO-induced hyperuricemia Sprague-Dawley rat model at 10 to 40 mg/kg, po measure upto 8 hrs; type: toxicity, organism-based; settings: in vivo, dose 10-40 mg/kg
[5] = target: T1, Xanthine dehydrogenase/oxidase; assay: Mixed-type inhibition of xanthine oxidase (unknown origin) using xanthine as substrate by absorbance based analysis
[6] = Effect on BUN level in PO-induced hyperuricemia Sprague-Dawley rat model at 10 to 40 mg/kg, po measure upto 8 hrs; type: toxicity, organism-based; settings: in vivo, dose 10-40 mg/kg
[7] = target: T1, Xanthine dehydrogenase/oxidase; assay: Reversible inhibition of xanthine oxidase (unknown origin) using xanthine as substrate by absorbance based analysis
Rattus norvegicus [8] = assay: Anti-hyperuricemia effect in PO-induced hyperuricemia Sprague-Dawley rat model assessed as decrease in serum uric acid level at 10 mg/kg, po measured for 1 to 6 hrs; type: functional, organism-based; settings: time 1-6 hrs
[9] = Effect on serum creatinine level in PO-induced hyperuricemia Sprague-Dawley rat model at 10 to 40 mg/kg, po measure upto 8 hrs; type: toxicity, organism-based; settings: in vivo, dose 10-40 mg/kg
[10] = target: T1, Xanthine dehydrogenase/oxidase; assay: Inhibition of xanthine oxidase (unknown origin) using xanthine as substrate preincubated for 20 mins followed by substrate addition measured for 5 mins by absorbance based analysis
[11] = Effect on serum creatinine level in PO-induced hyperuricemia Sprague-Dawley rat model at 10 mg/kg, po measure upto 8 hrs; type: toxicity, organism-based; settings: in vivo
Rattus norvegicus [12] = assay: Anti-hyperuricemia effect in PO-induced hyperuricemia Sprague-Dawley rat model assessed as decrease in serum uric acid level at 10 mg/kg, po measured after 2 hrs; type: functional, organism-based
[13] = Effect on serum AST/ALT ratio in PO-induced hyperuricemia Sprague-Dawley rat model at 10 mg/kg, po measure upto 8 hrs; type: toxicity, organism-based; settings: in vivo
[14] = Cytotoxicity in mouse AML12 cells assessed as cell viability at 20 uM incubated for 24 hrs by MTT assay relative to control; type: toxicity, cell-based; settings: read-out: Activity
[15] = Cytotoxicity in mouse AML12 cells assessed as cell viability at 1 to 10 uM incubated for 24 hrs by MTT assay relative to control; type: toxicity, cell-based; settings: dose 1-10 µM, read-out: Activity

Row | Compound | IC50 [1] [nM] | further results
1 | CC1(C)CCSc2ccc(C(=O)/C=C/c3cc(C(=O)O)ccc3O)cc21 | 368 | –
2 | O=C(O)c1ccc(O)c(/C=C/C(=O)c2ccc3c(c2)OCO3)c1 | 178 | –
3 | COc1ccc(C(=O)/C=C/c2ccc(C(=O)O)cc2)cc1 | – | IC50 [2]: 100 nM
4 | COc1ccc(C(=O)/C=C/c2ccc(O)cc2)cc1 | – | IC50 [10]: 4500 nM
5 | CC(C)(C)c1ccc(C(=O)/C=C/c2cc(C(=O)O)ccc2O)cc1 | 555 | –
6 | O=C(O)c1ccc(O)c(/C=C/C(=O)c2ccc3c(c2)CCC3)c1 | 559 | –
7 | CC(C)COc1ccc(C(=O)/C=C/c2cc(C(=O)O)ccc2O)cc1 | 306 | –
8 | O=C(/C=C/c1ccc(O)cc1)c1ccc(O)c(O)c1 | – | IC50 [10]: 5600 nM
9 | O=C(O)c1ccc(/C=C/C(=O)c2ccc(O)cc2)cc1 | – | IC50 [2]: 300 nM
10 | C=CCOc1ccc(C(=O)/C=C/c2cc(C(=O)O)ccc2O)cc1 | 404 | –
11 | CCCCOc1ccc(C(=O)/C=C/c2cc(C(=O)O)ccc2O)cc1 | 294 | –
12 | Oc1ncnc2[nH]ncc12 [ALLOPURINOL] | – | Activity [11]: Toxic; Activity (Rattus norvegicus [12]): Active; Activity [13]: Non-Toxic
13 | CCCOc1ccc(C(=O)/C=C/c2cc(C(=O)O)ccc2O)cc1 | 542 | –
14 | CS(=O)(=O)c1ccc(C(=O)/C=C/c2cc(C(=O)O)ccc2O)cc1 | 109 | –
15 | O=C(O)c1ccc(O)c(/C=C/C(=O)c2ccc3c(c2)CCN3)c1 | 64 | Activity (AML12): Non-Toxic; inhibition (INH) [5]: Active; inhibition (INH) [7]: Active
16 | O=C(O)c1ccc(O)c(/C=C/C(=O)c2ccc3c(c2)CCO3)c1 | 155 | –
17 | O=C(O)c1ccc(O)c(/C=C/C(=O)c2ccc3c(c2)OCCO3)c1 | 185 | –
18 | O=C(O)c1ccc(O)c(/C=C/C(=O)c2ccc3[nH]ccc3c2)c1 | 139 | –
19 | O=C(O)c1ccc(O)c(/C=C/C(=O)c2nccs2)c1 | 226 | –
20 | C#CCOc1ccc(C(=O)/C=C/c2cc(C(=O)O)ccc2O)cc1 | 274 | –

Second part, led by results:

Row | IC50 [1] [nM] | Compound | further results
21 | 307 | O=C(O)c1ccc(O)c(/C=C/C(=O)c2ccccn2)c1 | –
22 | 215 | O=C(O)c1ccc(O)c(/C=C/C(=O)c2ccsc2)c1 | –
23 | 311 | C[S+]([O-])c1ccc(C(=O)/C=C/c2cc(C(=O)O)ccc2O)cc1 (configuration not stated) | –
24 | 309 | O=C(O)c1ccc(O)c(/C=C/C(=O)c2ccncc2)c1 | –
25 | 102 | CNc1ccc(C(=O)/C=C/c2cc(C(=O)O)ccc2O)cc1 | Activity (AML12): Non-Toxic; Activity (Rattus norvegicus [3]): Active; Activity [4]: Non-Toxic; inhibition (INH) [5]: Active; Activity [6]: Non-Toxic; inhibition (INH) [7]: Active; Activity (Rattus norvegicus [8]): Active; Activity [9]: Non-Toxic
26 | 248 | CC(=O)c1ccc(C(=O)/C=C/c2cc(C(=O)O)ccc2O)cc1 | –
27 | 301 | O=C(O)c1ccc(O)c(/C=C/C(=O)c2cc[nH]c2)c1 | –
28 | 127 | C#Cc1ccc(C(=O)/C=C/c2cc(C(=O)O)ccc2O)cc1 | –
29 | 484 | CCOc1ccc(C(=O)/C=C/c2cc(C(=O)O)ccc2O)cc1 | –
30 | 297 | O=C(O)c1ccc(O)c(/C=C/C(=O)c2cccnc2)c1 | –
31 | 211 | CCCc1ccc(C(=O)/C=C/c2cc(C(=O)O)ccc2O)cc1 | –
32 | 196 | O=C(O)c1ccc(O)c(/C=C/C(=O)c2ccc3ncccc3c2)c1 | –
33 | 193 | CSc1ccc(C(=O)/C=C/c2cc(C(=O)O)ccc2O)cc1 | –
34 | 117 | CN(C)c1ccc(C(=O)/C=C/c2cc(C(=O)O)ccc2O)cc1 | –
35 | 176 | Cc1ccc(C(=O)/C=C/c2cc(C(=O)O)ccc2O)cc1 | –
36 | 222 | O=C(O)c1ccc(O)c(/C=C/C(=O)c2cccc3ccccc23)c1 | –
37 | 213 | O=C(O)c1ccc(O)c(/C=C/C(=O)c2ccc3ccccc3c2)c1 | –
38 | 84 | CCc1ccc(C(=O)/C=C/c2cc(C(=O)O)ccc2O)cc1 | inhibition (INH) [5]: Active; inhibition (INH) [7]: Active; viability at 24 h, 20 µM [14]: 82.1%; viability at 24 h, up to 10 µM [15]: > 90%
39 | 206 | O=C(O)c1ccc(O)c(/C=C/C(=O)c2ccccc2)c1 | –
40 | 266 | COc1ccc(C(=O)/C=C/c2cc(C(=O)O)ccc2O)cc1 | –
